Measured values reported in article PMC12124432, “Antimicrobial Peptide‐Peptoid Macrocycles from the Polymyxin B2 Chemical Space” (Angewandte Chemie (International Ed. in English), 2025).
Converted amounts (≈) assume the structure as drawn. Numbered stars: 1 amine (or outer) side, 2 acyl side, 3 side chain; on linkers, the order of the positions; unused ones are H or OH. Bridge positions count the residues as written; N and C are the ends. Square brackets hold non-standard residues; d marks the D form. Peptide text beside a SMILES is read from it. * marks the point of attachment. Propanoyl(3-cHex) = O=C(CCC1CCCCC1)*; Gly(NCH2CH2Ph) = O=C(O)CNCCc1ccccc1; Gly(N-2-aminoethyl) = NCCNCC(=O)O; X1 = O=C(CN(Cc1ccccn1)[*:1])[*:2]; N(iPr)Gly = CC(C)NCC(=O)O; NHexGly = CCCCCCNCC(=O)O; Nphe = O=C(O)CNCc1ccccc1; Octanoyl = CCCCCCCC(=O)*; Dab = NCC[C@H](N)C(=O)O; Pentanoyl = CCCCC(=O)*; Nleu = CC(C)CNCC(=O)O; Nlys = NCCCCNCC(=O)O

Legend:
E. coli W3110 = format: cell-based, Escherichia coli; details: W3110, pH 8.5
Experimental: (§1) Minimal Inhibitory Concentration (MIC)
(§2) Antimicrobial activity was assayed for all the peptide-peptoids against P. aeruginosa PAO1, K. pneumoniae NCTC418, E. coli W3110, A. baumannii ATCC 19606, methicillin-resistant S. aureus COL (MRSA) and for selected peptides on P. aeruginosa PA14, as well as the clinical isolates ZEM-1A and ZEM9A, K. pneumoniae OXA-48, Enterobacter cloacae, Stenotrophomonas maltophilia and Staphylococus epidermidis. To determine the Minimal Inhibitory Concentration (MIC), Broth Microdilution method was used. A colony of bacteria was picked and grown in LB medium overnight at 37 °C. The next day, the culture was then regrown in LB medium to log phase (OD600 = 0.6 to 0.8), which lasted approximately 4 hours, and diluted to an OD600 of 0.022 in the desired medium (full MH or 12.5% MH).
(§3) The compounds were prepared as stock solutions of 2 mg/mL in sterilized MilliQ deionized water and then diluted in the desired media (full MH or 12.5% MH) to reach the first concentration tested (32 μg/mL). The compounds were added to the first well of a 96-well sterile, round bottom microtiter plates in polystyrene (TPP®, untreated) and diluted serially by ½ in the desired media (full MH or 12.5% MH), to a final volume of 150 µL/well. To each well was finally added 4 µL of the diluted bacterial suspension (see above), corresponding to approximately 5×10^5 CFU. For each test, two columns of the plate were kept for sterility control (medium only), growth control (medium with bacterial inoculum, no compound). The positive control, Polymyxin B (starting with a concentration of 16 µg/mL) in MH medium with bacterial inoculums, was introduced in the two first lines of the plate. The plates were incubated at 37 °C for ca. 18 hours under static conditions. 15 µL of 3-(4,5-dimethylthiazol-2-yl)-2,5-diphenyltetrazolium bromide (MTT)[7] (1 mg/mL in sterilized MilliQ deionized water) were added to each well and the plates were incubated for 20-30 minutes at room temperature. The […]
(§4) minimal inhibitory concentration (MIC) was defined as the lowest concentration of the compound that inhibits the visible growth of the tested bacteria (yellow) with the unaided eye.
(§5) Minimal Hemolytic Concentration (MHC) […]
(§6) 11. Minimal inhibitory in presence of salt
(§7) The same procedure as for the antibacterial activity measurements by minimal inhibitory concentration assay (MIC) was applied. The media, 12.5% Mueller-Hinton broth was this time supplemented with different salt concentrations (0, 100, 200 300 mM NaCl). […]
(§8) All data, in μg/mL, measured against P. aeruginosa PAO1, with or without addition of salt (NaCl). The values were measured in dilute medium (12.5% MH) and at slightly basic pH (pH = 8.5), after incubation for 16-20 h at 37 °C. Values represent two different duplicate MIC determinations.

P. aeruginosa PAO1 = format: cell-based, Pseudomonas aeruginosa; details: PAO1, pH 8.5
Experimental: as §1, §2, §3, §4, §5, §6
as §7, with “NaCl). The MIC activities were then determined against Pseudomonas aeruginosa PAO1 and Escherichia coli” for “NaCl).”
Table S6. Minimal inhibitory concentration (MIC) on P. aeruginosa PAO1 as function of salt […]
as §8

Row | MIC on E. coli, 0 mM NaCl (E. coli W3110) [µg/mL] | MIC on E. coli, 100 mM NaCl (E. coli W3110) [µg/mL] | MIC on E. coli, 200 mM NaCl (E. coli W3110) [µg/mL] | MIC on E. coli, 300 mM NaCl (E. coli W3110) [µg/mL] | MIC on P. aeruginosa, 0 mM NaCl (P. aeruginosa PAO1) [µg/mL] | MIC on P. aeruginosa, 100 mM NaCl (P. aeruginosa PAO1) [µg/mL] | MIC on P. aeruginosa, 200 mM NaCl (P. aeruginosa PAO1) [µg/mL] | MIC on P. aeruginosa, 300 mM NaCl (P. aeruginosa PAO1) [µg/mL] | SMILES
1 | 2 (≈ 1.51 µM) | 16 (≈ 12.1 µM) | 64 (≈ 48.4 µM) | > 64 | 2 (≈ 1.51 µM) | 32 (≈ 24.2 µM) | > 64 | > 64 | CC(C)C[C@H](NC(=O)CN(CC(C)C)C(=O)[C@H](CC(C)C)NC(=O)CN(CCCCN)C(=O)[C@H](CC(C)C)NC(=O)CN(CC(C)C)C(=O)[C@H](CCCCN)NC(=O)CN(CC(C)C)C(=O)[C@H](CC(C)C)NC(=O)CN(CCCCN)C(=O)[C@@H](N)CCCCN)C(N)=O [EB9, reference compound] (H-K[Nlys]L[Nleu]K[Nleu]L[Nlys]L[Nleu]L-NH2)
2 | 16 to 32 | > 64 | > 64 | > 64 | 32 (≈ 27 µM) | > 64 | > 64 | > 64 | CC(C)N(CC(=O)N[C@@H](CC(N)=O)C(=O)N[C@H]1CCNC(=O)[C@H](CCCCN)NC(=O)[C@H](CC(N)=O)NC(=O)CN(CCCCN)C(=O)[C@H](CCCCN)NC(=O)[C@H](CO)NC1=O)C(=O)CN(Cc1ccccc1)C(=O)CCC1CCCCC1 [EB36] ({Propanoyl(3-cHex)}-[Nphe][N(iPr)Gly]N[Dab]SK[Nlys]NK; lactam 4-C)
3 | 32 (≈ 25.8 µM) | > 64 | > 64 | > 64 | 32 (≈ 25.8 µM) | > 64 | > 64 | > 64 | CC(C)N1CC(=O)N[C@@H](CCCCN)C(=O)N[C@@H](CO)C(=O)N[C@@H](CCCCN)C(=O)NCC[C@H](NC(=O)[C@H](CCCCN)NC(=O)[C@@H]2CCCN2C(=O)CN(CCc2ccccc2)C(=O)CCC2CCCCC2)C(=O)N[C@@H](CC(N)=O)C(=O)NCC1=O [EB37] ({Propanoyl(3-cHex)}-[Gly(NCH2CH2Ph)]PK[Dab]NG[N(iPr)Gly]KSK; lactam 4-C)
4 | 1 (≈ 0.769 µM) | 16 (≈ 12.3 µM) | > 64 | > 64 | 4 (≈ 3.08 µM) | > 64 | > 64 | > 64 | CCCCCCN(CC(=O)N[C@H]1CCNC(=O)[C@H](CCCCN)NC(=O)CN(CCN)C(=O)CN(CCN)C(=O)[C@H](CCCCN)NC(=O)[C@H](CC(N)=O)NC(=O)[C@H](CCCCN)NC1=O)C(=O)[C@H](CCCCN)NC(=O)CN(Cc1ccccc1)C(=O)CCCC [EB22] (Pentanoyl-[Nphe]K[NHexGly][Dab]KNK[Gly(N-2-aminoethyl)][Gly(N-2-aminoethyl)]K; lactam 4-C)
5 | 0.5 (≈ 0.448 µM) | 32 (≈ 28.7 µM) | > 64 | > 64 | 4 (≈ 3.59 µM) | > 64 | > 64 | > 64 | CCCCCCCC(=O)N(CC(=O)N(CCN)CC(=O)N[C@@H](CCC(N)=O)C(=O)N[C@H]1CCNC(=O)[C@H](CCCCN)NC(=O)[C@H](CCCCN)NC(=O)CN(CCCCN)C(=O)[C@H](CCCCN)NC1=O)Cc1ccccn1 [EB16] (Octanoyl-[X1][Gly(N-2-aminoethyl)]Q[Dab]K[Nlys]KK; lactam 4-C)
